Test results: PMC4535766, “Antiprotozoal Activity Profiling of Approved Drugs: A Starting Point toward Drug Repositioning” (PLoS ONE, 2015)
Structures can show the parent of a compound that is named as a salt. Where two headings read alike, the source gives them in different places.

Columns and labels:
[1] = test system: axenic amastigotes of L. donovani, strain MHOM-ET-67/L82; assay: In vitro activity against L. donovani axenic amastigotes, serial drug dilution assay; format: cell-based, Leishmania donovani; conditions: axenic amastigotes, strain MHOM-ET-67/L82, means of two independent assays, read-out: IC50 L. don. axen.
Experimental: (§1) Drug stock solutions (10mg/ml) were in DMSO (100%). […] Selectivity index (SI) was calculated as IC50 L6 cells/IC50 parasite.

[2] = test system: T. cruzi, strain Tulahuen C4, intracellular amastigotes; assay: microbe, parasite or virus in culture; conditions: for IC50: Trypanosoma cruzi, TULAHUEN
Experimental: as §1

in vitro = conditions: rat
Experimental: as §1

[3] = test system: T. b. rhodesiense strain STIB 900, trypomastigotes; assay: In vitro activity against T. b. rhodesiense, serial drug dilution assay
Experimental: as §1

[4] = Cytotoxicity on macrophages infected with L. donovani; format: cell-based, mouse; conditions: mouse, macrophages infected with L. donovani; read-out: IC50 Cytotox. mac.inf.
P. falciparum strain K1 = assay: In vitro activity against P. falciparum, serial drug dilution assay; conditions: for Activity against P. falciparum (in words): in vitro
Experimental: as §1

[5] = test system: L. donovani strain MHOM-ET-67/L82 amastigotes; assay: in vitro; conditions: mouse
Procedure, shortened: (§2)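 Axenic amastigotes grown at pH 5.4 infected mouse peritoneal macrophages for 4 h before free parasites were washed off. Next day, seven 3-fold drug dilutions (30–0.04 μg/ml) were added for 96 h. Giemsa-stained infected macrophages were counted, burden reduction was taken vs untreated controls, and IC50 came from linear regression.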

[6] = test system: intracellular amastigotes of L. donovani strain MHOM-ET-67/L82; assay: Activity against Leishmania donovani intracellular amastigotes in mouse peritoneal macrophages; conditions: for IC50: read-out: IC50 L. don. intracell
Procedure, shortened: as §2

[7] = In vitro cytotoxicity with mouse peritoneal macrophages (Alamar Blue); format: cell-based; conditions: mouse
Experimental: After 96 h of incubation, the plates were inspected under an inverted microscope to assure sterility. […] The IC50 values were calculated by linear regression from the sigmoidal dose inhibition curves using SoftmaxPro software (Molecular Devices Cooperation, Sunnyvale, CA, USA).

[8] = test system: macrophages infected with L. donovani; assay: Cytotoxicity on macrophages infected with L. donovani; format: cell-based, mouse
L6 cells = assay: Cytotoxicity on L6 cells
Experimental: as §1

[9] = Trypanosoma brucei, read-out: IC50 T. b. rhod.
[10] = Plasmodium falciparum, K1, read-out: IC50 P. falc. K1
[11] = Leishmania donovani, Peritoneal macrophage, in Mus musculus, 96 h
[12] = macrophages infected with L. donovani, read-out: IC50 Cytotox. mac.inf.
[13] = Selectivity index: IC50 Cytotoxicity macrophages/ IC50 L. donovani

| SMILES | IC50 ([1]; Leishmania donovani) | IC50 ([2]; read-out: IC50 T. cruzi) | IC50 [3, 9] | IC50 at 96 h [4] | IC50 (P. falciparum strain K1; [10]) | IC50 [6, 11] | IC50 at 96 h [7] | IC50 (in vitro; IC50 Cytotox. L6) | Activity against P. falciparum (in words) (P. falciparum strain K1) | further results |
| --- | --- | --- | --- | --- | --- | --- | --- | --- | --- | --- |
| C[C@@H]1[C@H](O)[C@@H](C)/C=C/C=C/C=C/C=C/C=C/C=C/C=C/[C@H](O[C@@H]2O[C@H](C)[C@@H](O)[C@H](N)[C@@H]2O)C[C@@H]2O[C@](O)(C[C@@H](O)C[C@@H](O)[C@H](O)CC[C@@H](O)C[C@@H](O)CC(=O)O[C@H]1C)C[C@H](O)[C@H]2C(=O)O [Amphotericin B] | 0.34 µM | 56.7 µM | 0.76 µM | 32.4 µM | 0.8 µM | 0.31 µM | 22.4 µM |  |  | IC50 (in vitro): 10.3 µM; selectivity ratio ([3]; rat): 14; selectivity ratio (P. falciparum strain K1; rat): 13; selectivity ratio at 96 h [5]: 95 |
| Cc1cc(C2CCCCC2)n(O)c(=O)c1 [Ciclopirox olamine] | 1.64 µM | 2.49 µM | 0.8 µM | 20.3 µM | 3.75 µM | 9.09 µM | 20.3 µM | 1.04 µM |  | IC50 [8, 12]: > 11.2 µM; selectivity ratio at 96 h ([5]; mouse peritoneal macrophages versus L. donovani amastigotes, Selectivity index: IC50 Cytotoxicity macrophages/ IC50 L. donovani, axenic or intracellular IC50 not specified): 9 |
| CC(C)/N=c1\cc2n(-c3ccc(Cl)cc3)c3ccccc3nc-2cc1Nc1ccc(Cl)cc1 [Clofazimine] | 22.4 µM |  |  | 6.34 µM |  | 0.95 µM | 10.7 µM |  |  | IC50 ([2]; read-out: T. cruzi IC50): 38.2 µM; IC50 (in vitro; Cytotox. L6 IC50): 9.97 µM; IC50 ([3]; Trypanosoma brucei, read-out: T. b. rhod. IC50): 7.63 µM; IC50 (P. falciparum strain K1; Plasmodium falciparum, K1, read-out: P. falc. IC50): 4.1 µM; selectivity ratio at 96 h [5, 13]: ~10 |
| Clc1ccccc1C(c1ccccc1)(c1ccccc1)n1ccnc1 [Clotrimazole] |  |  |  |  |  |  | 32.5 µM | 2.99 µM | active | Activity against L. donovani intracellular amastigotes (in words) [6]: active with low selectivity |
| Clc1ccc(COC(Cn2ccnc2)c2ccc(Cl)cc2Cl)cc1 (stereo not drawn) [Econazole (Nitrate salt), Econazole] |  |  |  |  |  |  | 22.8 µM | 15.6 µM | active |  |
| OC(Cn1cncn1)(Cn1cncn1)c1ccc(F)cc1F [Fluconazole] | 211 µM | 9.96 µM | 273 µM | > 98 µM |  | > 98 µM |  |  |  | selectivity ratio ([2]; rat, Selectivity index: IC50 Cytotoxicity L6/ IC50 T. cruzi): > 30; IC50 (in vitro; L6 cells, IC50 Cytotox. L6, L6 cells, means of two independent assays): > 294 µM; IC50 (L6 cells; read-out: IC50 Cytotox. L6, L6 cells, means of two independent assays): > 294 µM |
| NNC(=O)c1ccncc1 [Izoniazide] |  |  |  |  |  |  |  |  |  | IC50 [1]: > 656 µM; IC50 (L6 cells): > 656 µM; IC50 ([3]; read-out: IC50 T. b. rhod., strain STIB 900, trypomastigotes, means of two independent assays): > 656 µM; IC50 [8]: > 219 µM; IC50 (P. falciparum strain K1; read-out: IC50 P. falc. K1, strain K1, means of two independent assays): > 36.5 µM; IC50 ([6]; intracellular amastigotes in mouse peritoneal macrophages, strain MHOM-ET-67/L82, 96 h): > 219 µM |
| O=C(O)c1nn(Cc2ccc(Cl)cc2Cl)c2ccccc12 [Lonidamine] | 8.66 µM | 177 µM | 135 µM | > 93.4 µM | > 15.6 µM | > 93.4 µM |  | 273 µM |  | IC50 [8, 12]: > 93.4 µM; selectivity ratio at 96 h [5, 13]: > 11 |
| Clc1ccc(COC(Cn2ccnc2)c2ccc(Cl)cc2Cl)c(Cl)c1 (stereo not drawn) [Miconazole (Nitrate salt), Miconazole] |  |  |  |  |  |  | 23.9 µM | 15.4 µM | active |  |
| O=C(Nc1ccc([N+](=O)[O-])cc1Cl)c1cc(Cl)ccc1O [Niclosamide] | 0.15 µM | 2.49 µM | 1.67 µM |  | 1.14 µM | > 0.31 µM |  | 2.3 µM |  | MCC at 96 h [4]: 1010 nM; Concentrations toxic to mouse macrophages ([8]; mouse, 96 h): > 0.3 µg/mL; Activity against intracellular amastigotes at a fixed concentration ([6]; at a concentration of 0.1 μg/ml): inactive |
